Measured values published in patent US11845752B2, “Substituted imidazo[1,5-a]pyrazines for the treatment of hepatitis B” (ALIGOS THERAPEUTICS, INC., priority 2020, dated 2023).
Like-named read-outs stand apart in the source and are kept apart here.

Test system: HBV
Test: HBV-DNA antiviral assay using HepG2.117 cells (intracellular HBV DNA by qPCR)
Type: cell-based, HBV genotype D
Conditions: HBV DNA inhibition, 3 days incubation, read-out: EC50
Summary of the method: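 Read-outs: cell-lysate HBV DNA copies by qPCR (interpolated from gBlock standard) and parallel cellular ATP luminescence for CC50, both normalised to 2% DMSO controls and fitted by non-linear regression. HepG2.117 Tet-off genotype D HBV cells, induced by doxycycline removal, exposed 3 days to 4-fold serial dilutions.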

[1] = Hepatitis B virus, HepG2.117, 72 h

Row | Compound | EC50 [1] [nM] | EC50 [nM]
1 | CC1Cn2c(c(C(=O)NCc3ccccc3-c3cn(C)cn3)n(-c3ccc(OC4CC4)cc3)c2=O)CN1C(=O)c1ccc(Br)c(Cl)c1 (single isomer, unassigned) [Compound 18a, 7-(4-bromo-3-chloro-benzoyl)-2-[4-(cyclopropoxy)phenyl]-6-methyl-N-[[2-(1-methylimidazol-4-yl)phenyl]methyl]-3-oxo-6,8-dihydro-5H-imidazo[1,5-a]pyrazine-1-carboxamide] | 50 to 500 | –
2 | CC1Cn2c(c(C(=O)NCc3ccccc3-c3cn(C)cn3)n(-c3ccc(OC4CC4)cc3)c2=O)CN1C(=O)c1ccc(Br)c(Cl)c1 (single isomer, unassigned) [Compound 18b, 7-(4-bromo-3-chloro-benzoyl)-2-[4-(cyclopropoxy)phenyl]-6-methyl-N-[[2-(1-methylimidazol-4-yl)phenyl]methyl]-3-oxo-6,8-dihydro-5H-imidazo[1,5-a]pyrazine-1-carboxamide] | – | < 50
3 | CC1Cn2c(c(C(=O)NCc3ccccc3-n3cc(N)cn3)n(-c3ccc(OC4CC4)cc3)c2=O)CN1C(=O)c1ccc(Br)c(Cl)c1 (single isomer, unassigned) [Compound 19a] | – | 500 to 5000
4 | CC1Cn2c(c(C(=O)NCc3ccccc3-n3cc(N)cn3)n(-c3ccc(OC4CC4)cc3)c2=O)CN1C(=O)c1ccc(Br)c(Cl)c1 (single isomer, unassigned) [Compound 19b] | – | 50 to 500
5 | C#Cc1cc(C(=O)N2Cc3c(C(=O)NCc4ccccc4-c4ccncn4)n(-c4ccc(OC5CC5)cc4)c(=O)n3CC2C)ccc1Br (single isomer, unassigned) [Compound 20a] | – | 500 to 5000
6 | C#Cc1cc(C(=O)N2Cc3c(C(=O)NCc4ccccc4-c4ccncn4)n(-c4ccc(OC5CC5)cc4)c(=O)n3CC2C)ccc1Br (single isomer, unassigned) [Compound 20b] | – | 50 to 500
7 | CC1Cn2c(c(C(=O)NCc3ccccc3-c3ncccn3)n(-c3ccc(N4CCN(C)CC4)cc3)c2=O)CN1C(=O)c1ccc(Br)c(Cl)c1 (single isomer, unassigned) [Compound 21a] | < 50 | –
8 | CC1Cn2c(c(C(=O)NCc3ccccc3-c3ncccn3)n(-c3ccc(N4CCN(C)CC4)cc3)c2=O)CN1C(=O)c1ccc(Br)c(Cl)c1 (single isomer, unassigned) [Compound 21b] | – | 50 to 500
9 | CC1Cn2c(c(C(=O)NCc3ccccc3-c3ccn(C)n3)n(-c3ccc(OC4CC4)cc3)c2=O)CN1C(=O)c1ccc(Br)c(Cl)c1 (single isomer, unassigned) [Compound 22a] | 50 to 500 | –
10 | CC1Cn2c(c(C(=O)NCc3ccccc3-c3ccn(C)n3)n(-c3ccc(OC4CC4)cc3)c2=O)CN1C(=O)c1ccc(Br)c(Cl)c1 (single isomer, unassigned) [Compound 22b] | – | < 50
11 | CC1Cn2c(c(C(=O)NCc3ccccc3-c3cccc(N)n3)n(-c3ccc(OC4CC4)cc3)c2=O)CN1C(=O)c1ccc(Br)c(Cl)c1 (single isomer, unassigned) [Compound 23a] | 50 to 500 | –
12 | CC1Cn2c(c(C(=O)NCc3ccccc3-c3cccc(N)n3)n(-c3ccc(OC4CC4)cc3)c2=O)CN1C(=O)c1ccc(Br)c(Cl)c1 (single isomer, unassigned) [Compound 23b] | – | < 50
13 | CC1Cn2c(c(C(=O)NCc3c(F)cccc3-n3cccn3)n(-c3ccc(OC4CC4)cc3)c2=O)CN1C(=O)c1ccc(Br)c(Cl)c1 (single isomer, unassigned) [Compound 24a] | 50 to 500 | –
14 | CC1Cn2c(c(C(=O)NCc3c(F)cccc3-n3cccn3)n(-c3ccc(OC4CC4)cc3)c2=O)CN1C(=O)c1ccc(Br)c(Cl)c1 (single isomer, unassigned) [Compound 24b] | – | < 50
15 | CC1Cn2c(c(C(=O)NCc3c(F)cccc3-n3cccn3)n(-c3ccc(OC4CC4)cc3)c2=O)CN1C(=O)c1ccc(Br)c(C(F)(F)F)c1 (single isomer, unassigned) [Compound 25a] | 50 to 500 | –
16 | CC1Cn2c(c(C(=O)NCc3c(F)cccc3-n3cccn3)n(-c3ccc(OC4CC4)cc3)c2=O)CN1C(=O)c1ccc(Br)c(C(F)(F)F)c1 (single isomer, unassigned) [Compound 25b] | – | < 50
17 | CNc1ccnc(-c2ccccc2CNC(=O)c2c3n(c(=O)n2-c2ccc(OC4CC4)cc2)CC(C)N(C(=O)c2ccc(Br)c(Cl)c2)C3)n1 (single isomer, unassigned) [Compound 26a] | < 50 | –
18 | CC1Cn2c(c(C(=O)NCc3ccccc3-c3cccc(N)n3)n(-c3ccc(OC4CC4)cc3)c2=O)CN1C(=O)c1ccc(Br)c(C(F)(F)F)c1 (single isomer, unassigned) [Compound 27a] | < 50 | –
19 | CC1Cn2c(c(C(=O)NCc3ccccc3-c3cccc(N)n3)n(-c3ccc(OC4CC4)cc3)c2=O)CN1C(=O)c1ccc(Br)c(C(F)(F)F)c1 (single isomer, unassigned) [Compound 27b] | – | < 50
20 | CC1Cn2c(c(C(=O)NCc3ccccc3-c3nccc(N)n3)n(-c3ccc(OC4CC4)cc3)c2=O)CN1C(=O)c1ccc(Br)c(C(F)(F)F)c1 (single isomer, unassigned) [Compound 29a] | < 50 | –
21 | CC1Cn2c(c(C(=O)NCc3ccccc3-c3nccc(N)n3)n(-c3ccc(OC4CC4)cc3)c2=O)CN1C(=O)c1ccc(Br)c(C(F)(F)F)c1 (single isomer, unassigned) [Compound 29b] | – | < 50

Row | Compound | EC50 [1] [nM] | EC50 [nM]
22 | CC1Cn2c(c(C(=O)NCc3ccccc3-c3nccc(N)n3)n(-c3ccc(OC4CC4)cc3)c2=O)CN1C(=O)c1ccc(Br)c(Cl)c1 (single isomer, unassigned) [Compound 30a] | 50 to 500 | –
23 | CC1Cn2c(c(C(=O)NCc3ccccc3-c3nccc(N)n3)n(-c3ccc(OC4CC4)cc3)c2=O)CN1C(=O)c1ccc(Br)c(Cl)c1 (single isomer, unassigned) [Compound 30b] | – | < 50
24 | CC1Cn2c(c(C(=O)NCc3c(F)cccc3-c3nccc(N)n3)n(-c3ccc(OC4CC4)cc3)c2=O)CN1C(=O)c1ccc(Br)c(Cl)c1 (single isomer, unassigned) [Compound 31a] | 50 to 500 | –
25 | CC1Cn2c(c(C(=O)NCc3c(F)cccc3-c3nccc(N)n3)n(-c3ccc(OC4CC4)cc3)c2=O)CN1C(=O)c1ccc(Br)c(Cl)c1 (single isomer, unassigned) [Compound 31b] | – | < 50
26 | CC1Cn2c(c(C(=O)NCc3c(F)cccc3-c3nccc(N)n3)n(-c3ccc(OC4CC4)cc3)c2=O)CN1C(=O)c1ccc(Br)c(C(F)(F)F)c1 (single isomer, unassigned) [Compound 32a] | < 50 | –
27 | CC1Cn2c(c(C(=O)NCc3c(F)cccc3-c3nccc(N)n3)n(-c3ccc(OC4CC4)cc3)c2=O)CN1C(=O)c1ccc(Br)c(C(F)(F)F)c1 (single isomer, unassigned) [Compound 32b] | – | < 50
28 | Cc1nnc(-c2cccc(F)c2CNC(=O)c2c3n(c(=O)n2-c2ccc(OC4CC4)cc2)CC(C)N(C(=O)c2ccc(Br)c(C(F)(F)F)c2)C3)o1 (single isomer, unassigned) [Compound 33a] | 50 to 500 | –
29 | Cc1nnc(-c2cccc(F)c2CNC(=O)c2c3n(c(=O)n2-c2ccc(OC4CC4)cc2)CC(C)N(C(=O)c2ccc(Br)c(C(F)(F)F)c2)C3)o1 (single isomer, unassigned) [Compound 33b] | – | < 50
30 | CC1Cn2c(c(C(=O)NCc3ccccc3-c3ccccn3)n(-c3ccc(OC4CC4)cc3)c2=O)CN1C(=O)c1ccc(Br)c(C(F)(F)F)c1 (single isomer, unassigned) [Compound 34a] | < 50 | –
31 | CC1Cn2c(c(C(=O)NCc3c(F)cccc3-c3cccc(N)n3)n(-c3ccc(OC4CC4)cc3)c2=O)CN1C(=O)c1ccc(Br)c(Cl)c1 (single isomer, unassigned) [Compound 35a] | 50 to 500 | –
32 | CC1Cn2c(c(C(=O)NCc3c(F)cccc3-c3cccc(N)n3)n(-c3ccc(OC4CC4)cc3)c2=O)CN1C(=O)c1ccc(Br)c(Cl)c1 (single isomer, unassigned) [Compound 35b] | – | < 50
33 | CC1Cn2c(c(C(=O)NCc3c(F)cccc3-c3cccc(N)n3)n(-c3ccc(OC4CC4)cc3)c2=O)CN1C(=O)c1ccc(Br)c(C(F)(F)F)c1 (single isomer, unassigned) [Compound 36a] | < 50 | –
34 | CC1Cn2c(c(C(=O)NCc3c(F)cccc3-c3cccc(N)n3)n(-c3ccc(OC4CC4)cc3)c2=O)CN1C(=O)c1ccc(Br)c(C(F)(F)F)c1 (single isomer, unassigned) [Compound 36b] | – | < 50
35 | COc1nccc(-c2ccccc2CNC(=O)c2c3n(c(=O)n2-c2ccc(OC4CC4)cc2)CC(C)N(C(=O)c2ccc(Br)c(Cl)c2)C3)n1 (single isomer, unassigned) [Compound 37a] | 50 to 500 | –
36 | COc1nccc(-c2ccccc2CNC(=O)c2c3n(c(=O)n2-c2ccc(OC4CC4)cc2)CC(C)N(C(=O)c2ccc(Br)c(Cl)c2)C3)n1 (single isomer, unassigned) [Compound 37b] | – | < 50
37 | COc1nccc(-c2ccccc2CNC(=O)c2c3n(c(=O)n2-c2ccc(OC4CC4)cc2)CC(C)N(C(=O)c2ccc(Br)c(C(F)(F)F)c2)C3)n1 (single isomer, unassigned) [Compound 38a] | < 50 | –
38 | COc1nccc(-c2ccccc2CNC(=O)c2c3n(c(=O)n2-c2ccc(OC4CC4)cc2)CC(C)N(C(=O)c2ccc(Br)c(C(F)(F)F)c2)C3)n1 (single isomer, unassigned) [Compound 38b] | – | < 50
39 | CNc1cc(-c2ccccc2CNC(=O)c2c3n(c(=O)n2-c2ccc(OC4CC4)cc2)CC(C)N(C(=O)c2ccc(Br)c(C(F)(F)F)c2)C3)ncn1 (single isomer, unassigned) [Compound 40a] | < 50 | –
40 | CNc1cc(-c2ccccc2CNC(=O)c2c3n(c(=O)n2-c2ccc(OC4CC4)cc2)CC(C)N(C(=O)c2ccc(Br)c(C(F)(F)F)c2)C3)ncn1 (single isomer, unassigned) [Compound 40b] | – | < 50
41 | CC1Cn2c(c(C(=O)NCc3ccccc3-c3cc(N)cnn3)n(-c3ccc(OC4CC4)cc3)c2=O)CN1C(=O)c1ccc(Br)c(Cl)c1 (single isomer, unassigned) [Compound 42a] | – | 500 to 5000
